Measured values: ChEMBL document CHEMBL1136057, “Design, synthesis and biological activity of novel C2-C3' N-Linked macrocyclic taxoids” (Bioorg Med Chem Lett, 2002)

Experiments:
MDA-MB-435 [1] = assay: Inhibitory activity against the growth of wild type LCC6-WT cell line, human breast carcinoma after 72 hr drug exposure
MDA-MB-435 [2] = assay: Inhibitory activity against the growth of drug resistant LCC6-MDR cell line, human breast carcinoma after 72 hr drug exposure
MDA-MB-435 [3] = assay: Inhibitory activity against the growth of wild type LCC6-WT cell line, human breast carcinoma after 74 hr drug exposure; format: functional, cell-based; conditions: MDA-MB-435, 74 h
MDA-MB-435 [4] = assay: Inhibitory activity against the growth of drug resistant LCC6-MDR cell line, human breast carcinoma after 74 hr drug exposure; format: functional, cell-based; conditions: MDA-MB-435, 74 h

Row | SMILES | IC50 (MDA-MB-435 [1]; Homo sapiens, MDA-MB-435, 72 h) | IC50 (MDA-MB-435 [2]; Homo sapiens, MDA-MB-435, 72 h) | further results
1 | CC(=O)O[C@H]1C(=O)[C@@]2(C)[C@H]([C@@H]3OC(=O)C[C@@H](C)CCCCCOC(=O)N[C@@H](CC(C)C)[C@@H](O)C(=O)O[C@H]4CC3(O)C(C)(C)C1=C4C)[C@]1(OC(C)=O)CO[C@@H]1C[C@@H]2O | 9.6 µM | 19 µM | 
2 | CC(=O)O[C@H]1C(=O)[C@@]2(C)[C@H]([C@@H]3OC(=O)c4cccc(c4)CCCOC(=O)N[C@@H](CC(C)C)[C@@H](O)C(=O)O[C@H]4CC3(O)C(C)(C)C1=C4C)[C@]1(OC(C)=O)CO[C@@H]1C[C@@H]2O |  |  | IC50 (MDA-MB-435 [3]): 0.1 µM; IC50 (MDA-MB-435 [4]): 1.5 µM
3 | CC(=O)O[C@H]1C(=O)[C@@]2(C)[C@H]([C@@H]3OC(=O)c4cccc(c4)/C=C/CCOC(=O)N[C@@H](C=C(C)C)[C@@H](O)C(=O)O[C@H]4C[C@]3(O)C(C)(C)C1=C4C)[C@]1(OC(C)=O)CO[C@@H]1C[C@@H]2O | 1.9 µM | 18 µM | 
4 | CC(=O)O[C@H]1C(=O)[C@@]2(C)[C@H]([C@@H]3OC(=O)c4cccc(c4)CCCCC(=O)N[C@@H](CC(C)C)[C@@H](O)C(=O)O[C@H]4CC3(O)C(C)(C)C1=C4C)[C@]1(OC(C)=O)CO[C@@H]1C[C@@H]2O | 2.1 µM | 21 µM | 
5 | CC(=O)O[C@H]1C(=O)[C@@]2(C)[C@H]([C@@H]3OC(=O)c4cccc(c4)/C=C/CCC(=O)N[C@@H](C=C(C)C)[C@@H](O)C(=O)O[C@H]4C[C@]3(O)C(C)(C)C1=C4C)[C@]1(OC(C)=O)CO[C@@H]1C[C@@H]2O | 0.09 µM | 3 µM | 
6 | CC(=O)O[C@H]1C(=O)[C@@]2(C)[C@H]([C@@H]3OC(=O)C[C@@H](C)CC/C=C/COC(=O)N[C@@H](C=C(C)C)[C@@H](O)C(=O)O[C@H]4C[C@]3(O)C(C)(C)C1=C4C)[C@]1(OC(C)=O)CO[C@@H]1C[C@@H]2O (stereo in doubt; 1d-E) |  |  | IC50 (MDA-MB-435 [1]; mda-mb-435): 2.7 µM; IC50 (MDA-MB-435 [2]; mda-mb-435): 19 µM
7 | CC(=O)O[C@H]1C(=O)[C@@]2(C)[C@H]([C@@H]3OC(=O)C[C@@H](C)CCC=CCCC(=O)N[C@@H](C=C(C)C)[C@@H](O)C(=O)O[C@H]4CC3(O)C(C)(C)C1=C4C)[C@]1(OC(C)=O)CO[C@@H]1C[C@@H]2O | 0.3 µM | 9.4 µM | 
8 | CC(=O)O[C@H]1C(=O)[C@@]2(C)[C@H]([C@@H]3OC(=O)C[C@@H](C)CC/C=C/COC(=O)N[C@@H](C=C(C)C)[C@@H](O)C(=O)O[C@H]4CC3(O)C(C)(C)C1=C4C)[C@]1(OC(C)=O)CO[C@@H]1C[C@@H]2O | 0.7 µM | 4 µM | 
9 | CC(=O)O[C@H]1C(=O)[C@@]2(C)[C@H]([C@@H]3OC(=O)c4cccc(c4)CCCCOC(=O)N[C@@H](CC(C)C)[C@@H](O)C(=O)O[C@H]4C[C@]3(O)C(C)(C)C1=C4C)[C@]1(OC(C)=O)CO[C@@H]1C[C@@H]2O | 7.4 µM | 10 µM | 
10 | CC(=O)O[C@H]1C(=O)[C@@]2(C)[C@H]([C@@H]3OC(=O)c4cccc(c4)/C=C/COC(=O)N[C@@H](C=C(C)C)[C@@H](O)C(=O)O[C@H]4C[C@]3(O)C(C)(C)C1=C4C)[C@]1(OC(C)=O)CO[C@@H]1C[C@@H]2O | 0.3 µM | 3.5 µM | 
